Where two headings read alike, the source gives them in different places.
Test system: rgRSV224 virus
Assay: Antiviral activity: inhibition of rgRSV224 (GFP-expressing RSV) replication in HeLa cells
Assay type: cell-based, respiratory syncytial virus
Details: human respiratory syncytial virus, HeLa, 72 h
Description: Black 96-well clear-bottom microtiter plates (Corning, Amsterdam, The Netherlands) were filled in duplicate using a customized robot system with serial 4-fold dilutions of compound in a final volume of 50 μl culture medium [RPMI medium without phenol red, 10% FBS, 0.04% gentamycin (50 mg/ml) and 0.5% DMSO]. Then, 100 μl of a HeLa cell suspension (5×10^4 cells/ml) in culture medium was added to each well followed by the addition of 50 μl rgRSV224 (MOI=0.02) virus in culture medium using a multidrop dispenser (Thermo Scientific, Erembodegem, Belgium). rgRSV224 virus is an engineered virus that includes an additional GFP gene (Hallak et al, 2000) and was in-licensed from the NIH (Bethesda, Md., USA). Medium, virus- and mock-infected controls were included in each test. Cells were incubated at 37° C. in a 5% CO2 atmosphere. Three days post-virus exposure, viral replication was quantified by measuring GFP expression in the cells by a MSM laser microscope (Tibotec, Beerse, Belgium). The EC50 was defined as the 50% inhibitory concentration for GFP expression. In parallel, compounds were incubated for three days in a set of white 96-well microtitier plates (Corning) and the cytotoxicity of compounds in HeLa cells was determined by measuring the ATP content of the cells using the ATPlite kit (PerkinElmer, Zaventem, Belgium) according to the manufacturer's instructions. The CC50 was defined as the 50% concentration for cytotoxicity. SI is calculated as CC50/EC50.

[1] = read-out: pEC50, rgRSV224 (MOI=0.02) in HeLa cells, GFP expression three days post-virus exposure (converted)

Structure (SMILES)	EC50 (read-out: RSV-wt_pEC50, rgRSV224 (MOI=0.02) in HeLa cells, GFP expression three days post-virus exposure)	EC50 [1]
N#CCCCn1c(CN2C(=O)C3(CN(C(=O)[C@@H](O)CO)C3)c3ccccc32)cc2cc(Cl)ccc21 (single isomer, unassigned) [Compound 129]	0.355 nM	
CC(C)(C)OC(=O)N1CCC2(CC1)C(=O)N(Cc1cc3cc(Cl)ccc3n1CCCS(C)(=O)=O)c1cnccc12 [Compound 1, tert-butyl 1′-({5-chloro-1-[3-(methylsulfonyl)propyl]-1H-indol-2-yl}methyl)-2′-oxo-1′,2′-dihydro-1H-spiro [piperidine-4,3′-pyrrolo[2,3-c]pyridine]-1-carboxylate]		0.631 nM
CS(=O)(=O)CCCn1c(CN2C(=O)C3(CCNCC3)c3ccncc32)cc2cc(Cl)ccc21 [Compound 2, 1′-({5-chloro-1-[3-(methylsulfonyl)propyl]-1H-indol-2-yl}methyl)spiro[piperidine-4,3′-pyrrolo[2,3-c]pyridin]-2′(1′H)-one]		50.1 nM
CS(=O)(=O)CCCn1c(CN2C(=O)C3(CCN(S(C)(=O)=O)CC3)c3ccncc32)cc2cc(Cl)ccc21 [Compound 3, 1′-({5-chloro-1-[3-(methylsulfonyl)propyl]-1H-indol-2-yl}methyl)-1-(methylsulfonyl)spiro[piperidine-4,3′-pyrrolo[2,3-c]pyridin]-2′(1′H)-one]		0.0316 nM
CC(C)(C)OC(=O)N1CC2(C1)C(=O)N(Cc1nc3cc(Cl)ccc3n1CCCS(C)(=O)=O)c1ccccc12 [Compound 4, tert-butyl 1′-({5-chloro-1-[3-(methylsulfonyl)propyl]-1H-benzimidazol-2-yl}methyl)-2′-oxo-1′,2′-dihydro-1H-spiro[azetidine-3,3′-indole]-1-carboxylate]		0.0794 nM
CS(=O)(=O)CCCn1c(CN2C(=O)C3(CNC3)c3ccccc32)nc2cc(Cl)ccc21 [Compound 5, 1′-({5-chloro-1-[3-(methylsulfonyl)propyl]-1H-benzimidazol-2-yl}methyl)spiro[azetidine-3,3′-indol]-2′(1′H)-one]		5.01 nM
CC(C)(O)C(=O)N1CC2(C1)C(=O)N(Cc1nc3cc(Cl)ccc3n1CCCS(C)(=O)=O)c1ccccc12 [Compound 6, 1′-({5-chloro-1-[3-(methylsulfonyl)propyl]-1H-benzimidazol-2-yl}methyl)-1-(2-hydroxy-2-methylpropanoyl)spiro[azetidine-3,3′-indol]-2′(1′H)-one]		0.501 nM
CS(=O)(=O)CCCn1c(CN2C(=O)C3(CN(c4cccnc4)C3)c3ccccc32)nc2cc(Cl)ccc21 [Compound 7, 1′-({5-chloro-1-[3-(methylsulfonyl)propyl]-1H-benzimidazol-2-yl}methyl)-1-(pyridin-3-yl)spiro[azetidine-3,3′-indol]-2′(1′H)-one]		0.0251 nM
CC(C)(O)CN1CC2(C1)C(=O)N(Cc1nc3cc(Cl)ccc3n1CCCS(C)(=O)=O)c1ccccc12 [Compound 8, 1′-({5-chloro-1-[3-(methylsulfonyl)propyl]-1H-benzimidazol-2-yl}methyl)-1-(2-hydroxy-2-methylpropyl)spiro[azetidine-3,3′-indol]-2′(1′H)-one]		0.794 nM
CS(=O)(=O)CCCn1c(CN2C(=O)C3(CCN(S(=O)(=O)c4ccc5nccnc5c4)CC3)c3ccncc32)nc2cc(Cl)ccc21 [Compound 13, 1′-((5-chloro-1-(3-(methylsulfonyl)propyl)-1H-benzo[d]-imidazol-2-yl)methyl)-1-(quinoxalin-6-ylsulfonyl)spiro-[piperidine-4,3′-pyrrolo[2,3-c]pyridin]-2′(1′H)-one]		0.0501 nM
CC(C)(C)OC(=O)N1CCC2(CC1)C(=O)N(Cc1nc3cc(Cl)ccc3n1CCCS(C)(=O)=O)c1cnccc12 [Compound 14, tert-butyl 1′-((5-chloro-1-(3-(methylsulfonyl)propyl)-1H-benzo[d]imidazol-2-yl)methyl)-2′-oxo-1′,2′-dihydrospiro-[piperidine-4,3′-pyrrolo[2,3-c]pyridine]-1-carboxylate]		< 0.158 nM
CS(=O)(=O)CCCn1c(CN2C(=O)C3(CCN(c4ccc(Cl)nn4)CC3)c3ccccc32)nc2cc(Cl)ccc21 [Compound 15, 1-((5-chloro-1-(3-(methylsulfonyl)propyl)-1H-benzo[d]-imidazol-2-yl)methyl)-1′-(6-chloropyridazin-3-yl)spiro-[indoline-3,4′-piperidin]-2-one]		< 0.158 nM
CS(=O)(=O)CCCn1c(CN2C(=O)C3(CCN(S(=O)(=O)c4ccc5nccnc5c4)CC3)c3ccccc32)nc2cc(Cl)ccc21 [Compound 16, 1-((5-chloro-1-(3-(methylsulfonyl)propyl)-1H-benzo[d]-imidazol-2-yl)methyl)-1′-(quinoxalin-6-ylsulfonyl)spiro-[indoline-3,4′-piperidin]-2-one]		< 0.158 nM
CC(C)(C)OC(=O)N1CCC2(CC1)C(=O)N(Cc1nc3cc(Br)ccc3n1CCCS(C)(=O)=O)c1ccccc12 [Compound 17, tert-butyl 1-((5-bromo-1-(3-(methylsulfonyl)propyl)-1H-benzo[d]imidazol-2-yl)methyl)-2-oxospiro[indoline-3,4′-piperidine]-1′-carboxylate]		0.316 nM
CS(=O)(=O)CCCn1c(CN2C(=O)C3(CCN(S(=O)(=O)c4ccc(C#N)cc4)CC3)c3ccccc32)nc2cc(Cl)ccc21 [Compound 18, 4-(1-((5-chloro-1-(3-(methylsulfonyl)propyl)-1H-benzo[d]-imidazol-2-yl)methyl)-2-oxospiro[indoline-3,4′-piperidine]-1′-ylsulfonyl) benzonitrile]		1.26 nM
CS(=O)(=O)CCCn1c(CN2C(=O)C3(CCOCC3)c3cc(F)ccc32)nc2cc(Cl)ccc21 [Compound 19]		3.98 nM
CS(=O)(=O)CCCn1c(CN2C(=O)C3(CCN(c4ccc(Cl)nn4)CC3)c3cc(Br)ccc32)nc2cc(Cl)ccc21 [Compound 20, 5-bromo-1-((5-chloro-1-(3-(methylsulfonyl)propyl)-1H-benzo[d]imidazol-2-yl)methyl)-1′-(6-chloropyridazin-3-yl)spiro[indoline-3,4′-piperidin]-2-one]		3.98 nM
CS(=O)(=O)CCCn1c(CN2C(=O)C3(CCNCC3)c3ccccc32)nc2cc(Cl)ccc21 [Compound 21, 1-((5-chloro-1-(3-(methylsulfonyl)propyl)-1H-benzo[d]-imidazol-2-yl)methyl)spiro[indoline-3,4′-piperidin]-2-one]		5.01 nM
CS(=O)(=O)CCCn1c(CN2C(=O)C3(CCN(C(=O)c4ccncc4)CC3)c3cc(Br)ccc32)nc2cc(Cl)ccc21 [Compound 22, 5-bromo-1-((5-chloro-1-(3-(methylsulfonyl)propyl)-1H-benzo[d]imidazol-2-yl)methyl)-1′-isonicotinoylspiro-[indoline-3,4′-piperidin]-2-one]		7.94 nM
CC(C)(C)OC(=O)N1CCC2(CC1)C(=O)N(Cc1nc3cc(Cl)ccc3n1CCCS(C)(=O)=O)c1ccc(Br)cc12 [Compound 23, tert-butyl 5-bromo-1-((5-chloro-1-(3-(methyl-sulfonyl)propyl)-1H-benzo[d]imidazol-2-yl)methyl)-2-oxospiro[indoline-3,4′-piperidine]-1′-carboxylate]		7.94 nM
CC(=O)N1CCC2(CC1)C(=O)N(Cc1nc3cc(Cl)ccc3n1CCCS(C)(=O)=O)c1ccc(Cl)cc12 [Compound 24, 1-acetyl-5-chloro-1-((5-chloro-1-(3-(methylsulfonyl)-propyl)-1H-benzo[d]imidazol-2-yl)methyl)spiro[indoline-3,4′-piperidin]-2-one]		7.94 nM
CC(C)(O)CN1CCC2(CC1)C(=O)N(Cc1nc3cc(Cl)ccc3n1CCCS(C)(=O)=O)c1ccc(Cl)cc12 [Compound 25, 5-chloro-1-((5-chloro-1-(3-(methylsulfonyl)propyl)-1H-benzo[d]imidazol-2-yl)methyl)-1-(2-hydroxy-2-methylpropyl)spiro[indoline-3,4′-piperidin]-2-one]		31.6 nM
CS(=O)(=O)CCCn1c(CN2C(=O)C3(CCNCC3)c3c(Cl)cccc32)nc2cc(Cl)ccc21 [Compound 26, 4-chloro-1-({5-chloro-1-[3-(methylsulfonyl)propyl]-1H-benzimidazol-2-yl}methyl)spiro[indole-3,4′-piperidin]-2(1H)-one]		316 nM
CS(=O)(=O)CCCn1c(CN2C(=O)C3(CN(S(=O)(=O)c4ccc(F)cc4)C3)c3ccccc32)nc2cc(Cl)ccc21 [Compound 33, 1′-({5-chloro-1-[3-(methylsulfonyl)propyl]-1H-benzimidazol-2-yl}methyl)-1-[(4-fluorophenyl)-sulfonyl]spiro[azetidine-3,3′-indol]-2′(1′H)-one]		0.158 nM
CS(=O)(=O)CCCn1c(CN2C(=O)C3(CCCC3)c3ccncc32)nc2cc(Cl)ccc21 [Compound 37, 1′-((5-chloro-1-(3-(methylsulfonyl)propyl)-1H-benzo[d]-imidazol-2-yl)methyl)spiro[cyclopentane-1,3′-pyrrolo[2,3-c]pyridin]-2′(1′H)-one]		0.1 nM
CS(=O)(=O)CCCn1c(CN2C(=O)C3(CCOCC3)c3ccncc32)nc2cc(Cl)ccc21 [Compound 38, 1′-((5-chloro-1-(3-(methylsulfonyl)propyl)-1H-benzo[d]-imidazol-2-yl)methyl)-2,3,5,6-tetrahydrospiro[pyran-4,3′-pyrrolo[2,3-c]pyridin]-2′(1′H)-one]		0.158 nM
